Our source for the Ki values is patent US8802694B2, “3,6-diazabicyclo[3.1.1]heptanes as neuronal nicotinic acetycholine receptor ligands” (Targacept, Inc., priority 2009, dated 2014).

The target in assay [1] is T1, Rat α4β2 (Rattus norvegicus, UniProt P09483+P12390).
T1 construct: Rat cortices were obtained from Analytical Biological Services; tissue Analytical Biological Services, Incorporated (ABS, Wilmington, Del.); host or cells: rat cortex (female Sprague-Dawley)
Kind of assay: Competition binding to rat α4β2 receptors in rat cortical membranes. Conditions: rat cortex membranes. As to the method:
Preparation of membranes from rat tissues. Rat cortices were obtained from Analytical Biological Services, Incorporated (ABS, Wilmington, Del.). Tissues were dissected from female Sprague-Dawley rats, frozen and shipped on dry ice. Tissues were stored at −20° C. until needed for membrane preparation. […] The resulting homogenate was centrifuged at 40,000 g for 20 minutes at 4° C. and the resulting pellet was resuspended in 20 volumes of ice-cold water. After 60-minute incubation at 4° C., a new pellet was collected by centrifugation at 40,000 g for 20 minutes at 4° C. The final pellet was resuspended in preparative buffer and stored at −20° C. On the day of the assay, tissue was thawed, centrifuged at 40,000 g for 20 minutes and then resuspended in PBS (Dulbecco's Phosphate Buffered Saline, Life Technologies, pH 7.4) to a final concentration of 2-3 mg protein/mL. Protein concentrations were determined using the Pierce BCA Protein Assay kit (Pierce Biotechnology, Rockford, Ill.), with bovine serum albumin as the standard.
Competition binding to receptors in membrane preparations. […] In brief, membranes were reconstituted from frozen stocks (approximately 0.2 mg protein) and incubated for 2 h on ice in […] assay buffer (PBS) in the presence of competitor compound (0.001 nM to […]) and radioligand. [^3H]-nicotine (L-(−)-[N-methyl-3H]-nicotine, 69.5 Ci/mmol, Perkin-Elmer Life Sciences) was used for human α4β2 binding studies. [^3H]-epibatidine (52 Ci/mmol, Perkin-Elmer Life Sciences) was used for binding studies at the other receptor subtypes. […] Filters were washed 3 times and the radioactivity retained was determined by liquid scintillation counting.
Binding data analysis. Binding data were expressed as percent total control binding. Replicates for each point were averaged and plotted against the log of drug concentration.

Assay [2] addresses T2, α6β3β4α5 (Homo sapiens, UniProt P30926+Q15825).
T2 construct: host or cells: SH-EP1
Kind of assay: Competition binding to α6β3β4α5 receptors in membranes of SH-EP1/α6β3β4α5 cells ([3H]-epibatidine). Conditions: membrane competition binding.

The target in assay [3] is T3, Human α4β2 (Homo sapiens, UniProt P17787+P43681).
T3 construct: host or cells: SH-EP1
Kind of assay: Competition binding to human α4β2 receptors in membranes of SH-EP1/human α4β2 cells ([3H]-nicotine). Conditions: membrane competition binding.

Read-outs that look alike come from different tables or passages of the source.

Turning to `O=C(c1cnco1)N1CC2CC(C1)N2`, the values for the Ki in assay [1] (Rat α4β2 Ki), in assay [2] (read-out: α6β3β4α5 Ki) and in assay [3] (Human α4β2 Ki) were 0.18 nM, 17000 nM and 28 nM, respectively.

For the molecule `Cc1ncoc1C(=O)N1CC2CC(C1)N2`, the inhibition constant Ki (as a rule, a dissociation constant, usually derived from enzyme kinetics or from competition with a known ligand) in assay [1] (Rat α4β2 Ki) is 38 nM; in assay [2] (read-out: α6β3β4α5 Ki), 11000 nM.

Regarding `O=C(C1CC1(F)F)N1CC2CC(C1)N2` (stereo not drawn), the figures for the Ki in assay [1] (Rat α4β2 Ki), in assay [2] (α6β3β4α5 Ki) and in assay [3] (Human α4β2 Ki) were 8.8 nM, 510 nM and 6.1 nM, respectively.

`O=C(CC1CCCC1)N1C2CNCC1C2`: the results for the Ki in assay [1] (Rat α4β2 Ki), in assay [2] (read-out: α6β3β4α5 Ki) and in assay [3] (read-out: Human α4β2 Ki) were 100 nM, 360 nM and 220 nM, respectively.

On to `O=C(CC1CCOC1)N1C2CNCC1C2` (stereo not drawn), for which the inhibition constant (Ki) in assay [1] (read-out: Rat α4β2 Ki) turned out to be 130 nM; in assay [2] (read-out: α6β3β4α5 Ki), 1600 nM; in assay [3] (read-out: Human α4β2 Ki) it was 330 nM.

Turning to `O=C([C@H]1CCCO1)N1C2CNCC1C2`, the inhibition constant (Ki) in assay [2] (read-out: α6β3β4α5 Ki) worked out at 1100 nM; in assay [3] (read-out: Human α4β2 Ki), 390 nM.

Take `O=C(CC1CC1)N1C2CNCC1C2`: the Ki in assay [1] (Rat α4β2 Ki) came out at 27 nM; in assay [2] (read-out: α6β3β4α5 Ki), 310 nM; in assay [3] (Human α4β2 Ki), 43 nM.

Regarding `CC1(C)C(C(=O)N2CC3CC(C2)N3)C1(C)C`, the Ki amounted to 710 nM in assay [1] (read-out: Rat α4β2 Ki), 480 nM in assay [2] (read-out: α6β3β4α5 Ki) and 140 nM in assay [3] (read-out: Human α4β2 Ki).

Take `CC1CC1C(=O)N1CC2CC(C1)N2` (stereo not drawn): the Ki was 1.8 nM in assay [1] (Rat α4β2 Ki), 120 nM in assay [2] (α6β3β4α5 Ki) and 5 nM in assay [3] (Human α4β2 Ki).

As for `O=C(CSc1ccc(Cl)c(Cl)c1)N1CC2CC(C1)N2`, the Ki is 16 nM in assay [1] (Rat α4β2 Ki), 100 nM in assay [2] (α6β3β4α5 Ki) and 2.3 nM in assay [3] (Human α4β2 Ki).

On to `O=C(CSc1ccc(O)cc1)N1CC2CC(C1)N2`, for which the results for the Ki in assay [1] (Rat α4β2 Ki), in assay [2] (read-out: α6β3β4α5 Ki) and in assay [3] (Human α4β2 Ki) were 8.6 nM, 120 nM and 11 nM, respectively.

As to `O=C(NCc1ccc(Cl)c(Cl)c1)N1C2CNCC1C2`, the Ki in assay [2] (read-out: α6β3β4α5 Ki) is 5900 nM; in assay [3] (read-out: Human α4β2 Ki) it was 3100 nM.

With `O=C(NCc1ccccc1)N1CC2CC(C1)N2`, the values for the Ki in assay [1] (read-out: Rat α4β2 Ki), in assay [2] (read-out: α6β3β4α5 Ki) and in assay [3] (read-out: Human α4β2 Ki) were 200 nM, 400 nM and 270 nM, respectively.

Consider `O=C(NCc1ccc(Cl)cc1)N1CC2CC(C1)N2`, for which the Ki in assay [1] (Rat α4β2 Ki) stood at 4 nM; in assay [2] (read-out: α6β3β4α5 Ki), 210 nM; in assay [3] (read-out: Human α4β2 Ki), 110 nM.

With `O=C(NCc1ccc(Cl)cc1Cl)N1CC2CC(C1)N2`, the figures for the inhibition constant Ki in assay [1] (Rat α4β2 Ki), in assay [2] (α6β3β4α5 Ki) and in assay [3] (Human α4β2 Ki) were 24 nM, 38 nM and 48 nM, respectively.

Regarding `O=C(NCc1ccc(Cl)c(Cl)c1)N1CC2CC(C1)N2`, the Ki is 71 nM in assay [1] (Rat α4β2 Ki), 120 nM in assay [2] (read-out: α6β3β4α5 Ki) and 90 nM in assay [3] (Human α4β2 Ki).

As for `CCCC(=O)N1CC2CC(C1)N2`, the Ki is 4.1 nM in assay [1] (Rat α4β2 Ki), 290 nM in assay [2] (α6β3β4α5 Ki) and 12 nM in assay [3] (Human α4β2 Ki).

`O=C(CCC(F)(F)F)N1CC2CC(C1)N2`: the inhibition constant Ki in assay [1] (Rat α4β2 Ki) worked out at 63 nM; in assay [2] (read-out: α6β3β4α5 Ki), 980 nM; in assay [3] (Human α4β2 Ki), 74 nM.

With `C/C=C/CCC(=O)N1CC2CC(C1)N2`, the Ki was 25 nM in assay [1] (Rat α4β2 Ki), 540 nM in assay [2] (read-out: α6β3β4α5 Ki) and 37 nM in assay [3] (Human α4β2 Ki).

With `O=C(CC1CCC1)N1CC2CC(C1)N2`, the Ki stood at 34 nM in assay [1] (Rat α4β2 Ki), 440 nM in assay [2] (read-out: α6β3β4α5 Ki) and 49 nM in assay [3] (Human α4β2 Ki).

Regarding `CC1(C)CC1C(=O)N1CC2CC(C1)N2` (stereo not drawn), the Ki in assay [1] (Rat α4β2 Ki) was found to be 6.7 nM; in assay [2] (α6β3β4α5 Ki), 120 nM; in assay [3] (Human α4β2 Ki), 5.3 nM.

Consider `CCC1(CC)CC1C(=O)N1CC2CC(C1)N2` (stereo not drawn), for which the Ki in assay [1] (Rat α4β2 Ki) worked out at 69 nM; in assay [2] (read-out: α6β3β4α5 Ki), 470 nM; in assay [3] (Human α4β2 Ki), 71 nM.

`C[C@@H]1C(C(=O)N2CC3CC(C2)N3)[C@@H]1C` (stereo partly drawn): the Ki turned out to be 30 nM in assay [1] (Rat α4β2 Ki), 170 nM in assay [2] (read-out: α6β3β4α5 Ki) and 44 nM in assay [3] (Human α4β2 Ki).

As to `O=C([C@@H]1C[C@H]1c1ccccc1)N1CC2CC(C1)N2`, the inhibition constant (Ki) came to 4.4 nM in assay [1] (Rat α4β2 Ki), 64 nM in assay [2] (α6β3β4α5 Ki) and 4.7 nM in assay [3] (Human α4β2 Ki).

As for `O=C(C1CC12CCC2)N1CC2CC(C1)N2` (stereo not drawn), the values for the inhibition constant (Ki) in assay [1] (Rat α4β2 Ki), in assay [2] (α6β3β4α5 Ki) and in assay [3] (Human α4β2 Ki) were 1.2 nM, 50 nM and 2.6 nM, respectively.

Take `O=C(C1CC12CCCC2)N1CC2CC(C1)N2` (stereo not drawn): the Ki in assay [1] (Rat α4β2 Ki) was determined as 31 nM; in assay [2] (α6β3β4α5 Ki), 96 nM; in assay [3] (Human α4β2 Ki), 26 nM.

For the molecule `O=C(C1C2CCCCC21)N1CC2CC(C1)N2` (stereo not drawn), the Ki in assay [1] (Rat α4β2 Ki) amounted to 30 nM; in assay [2] (read-out: α6β3β4α5 Ki) it was 280 nM; in assay [3] (Human α4β2 Ki), 78 nM.

Take `CCC[C@H]1C[C@H]1C(=O)N1CC2CC(C1)N2`: the inhibition constant (Ki) in assay [1] (read-out: Rat α4β2 Ki) turned out to be 130 nM; in assay [2] (read-out: α6β3β4α5 Ki), 220 nM; in assay [3] (Human α4β2 Ki), 44 nM.

`CC1CC(C(=O)N2CC3CC(C2)N3)C1` (stereo not drawn): the inhibition constant Ki is 22 nM in assay [1] (Rat α4β2 Ki), 380 nM in assay [2] (read-out: α6β3β4α5 Ki) and 23 nM in assay [3] (Human α4β2 Ki).
